Source: paper PMC9694197, “Undescribed Metabolites from an Actinobacteria Acrocarpospora punica and Their Anti-Inflammatory Activity” (Molecules, 2022)
Entries after “also recorded” stand apart in the source; their conditions may differ. Read-outs that look alike come from different tables or passages of the source.

Columns and labels:
Type in all cases: cell-based, mouse
[1] = system: iNOS gene (mRNA expression); assay: RT-PCR of iNOS mRNA expression after LPS treatment
Procedure: (§1) The six isolates, in sufficient amounts, were evaluated by examining their inhibitory effects on LPS-induced inducible nitric oxide synthase (iNOS)-dependent NO production in the murine macrophage cell line RAW 264.7 (Table 5). […] (e) Compounds 3 and 6 belong to liner azaphilone skeleton and naphthenic derivatives, respectively; compound 3 has better anti-inflammatory activity than 6. […] (g) The cytotoxic effects were measured using an MTT assay.
The ImProm-II Reverse Transcription System (Promega) was used to take 1 μg of the extracted total RNA, to which was added 1 μL of Oligo(dT)15 Primer, and other supplements with DEPS water. At this time, the total volume was 5 μL. The reaction was immediately placed on ice for at least 5 min, and then 5 × buffer 4 μL, MgCl2 (25 mM) 1.2 μL, dNTP Mix (10 mM) 1 μL, RNasin Ribonuclease Inhibitor 0.5 μL, ImProm-II reverse transcriptase 1 μL and DEPC H2O 6.8 μL was added; the cDNA product was obtained after the reactions of 25 °C, 5 min; 42 °C, 1 h; and 70 °C, 15 min. At the same time, a negative control group was made without reverse transcriptase to confirm whether there was DNA contamination. The obtained cDNA product was then amplified by a PCR reaction to amplify the predicted fragment.
Using the ABI PRISM 7700 Sequence Detection System, the cDNA product was assayed for iNOS, TNF-α, IL-6 and β-actin (internal standard) in a total reaction volume of 20 μL, including 2 × IQ2 SYBR Green Fast qPCR Master Mix (2X) 10 μL, 10 μM of 5′ and 3′ primers 1 μL each. The cDNA template 1 μL reaction conditions were 95 °C, 2 min, 1 cycle; 95 °C, 5 s; and 60 °C, 30 s, 40 cycles. The primers of the PCR reaction were: sense strand iNOS, 5′-GGAGTGACGGCAAACATGACT-3′; anti-sense strand iNOS, 5′-TCGATGCACAACTGGGTGAAC-3′; sense strand IL-6, 5′-CAGAGTCCTTCAGAGAGATACAG-3′; anti-sense strand IL-6, 5′-GATGAATTGGATGGTCTTGGTCC-3′; sense strand TNF-α, 5′-CAGACCCTCACACTCAGATC-3′; anti-sense strand TNF-α, 5′-CTTTGAGATCCATGCCGTTG-3′; sense strand β-actin, 5′-GGCTGTATTCCCCTCCATCG-3′; and anti-sense strand β-actin, 5′-CCAGTTGGTAACAATGCCATGT-3′.

[2] = Cell viability, MTT assay; settings: mouse, RAW 264.7 macrophage cells; RAW 264.7, MTT assay
Procedure: as §1
(§2) Mouse macrophage cell line (RAW 264.7) was obtained from the Bioresource Collection and Research Center (BCRC 60001) and cultured at 37 °C in Dulbecco’s Modified Eagle’s Medium (DMEM) supplemented with 10% fetal bovine serum (Gibco), 4.5 g/L glucose, 4 mM glutamine, penicillin (100 units/mL), and streptomycin (100 μg/mL) in a humidified atmosphere in a 5% CO2 incubator. The cells were treated with 10, 25, 50 μM natural products in the presence of 1 μg/mL LPS (lipopolysaccharide, Sigma-Aldrich) for 20 h. The concentration of NO in culture supernatants was determined as nitrite, a major stable product of NO, by a Griess reagent assay, and the cell viabilities were determined using the MTT assay as described previously.

RAW 264.7 cells = assay: Cell viability, MTT assay; settings: RAW 264.7, MTT assay, with 1 μg/mL LPS, 20 h; mean ± S.E.M.
Procedure: as §1, §2

[3] = system: LPS-induced NO production in RAW 264.7 murine macrophages; assay: LPS-induced iNOS-dependent NO production (nitrite, Griess reagent assay); settings: for NO inhibitory activity compared to quercetin: ratio to the positive control quercetin, RAW 264.7, LPS; for IC50: read-out: IC50, NO generation; for NO inhibitory activity (in words): RAW 264.7, LPS-stimulated
Procedure: as §1, §2

[4] = RAW 264.7 murine macrophages, 1 μg/mL LPS, 20 h, mean ± S.E.M. of three independent experiments
[5] = Mus musculus, RAW264.7, 20 h, RAW 264.7 murine macrophages, 1 μg/mL LPS, 20 h, mean ± S.E.M. of three independent experiments

SMILES	IC50 ([3]; RAW 264.7 murine macrophages, 1 μg/mL LPS, 20 h, mean ± S.E.M. of three independent experiments, listed as 2)	IC50 [3, 4]	IC50 ([3]; RAW 264.7 murine macrophages, 1 μg/mL LPS, 20 h, mean ± S.E.M. of three independent experiments, listed as 3)	IC50 [3, 5]	Effect on LPS-increased iNOS mRNA expression [1]	viability at 20 h [2]	Cell Viability (% Control) (RAW 264.7 cells)	NO inhibitory activity compared to quercetin [3]	NO inhibitory activity (in words) [3]	IC50 ([3]; Mus musculus, RAW264.7, 20 h)
CC=CC1=CC2=CC3=C(C(=O)CCCCC)C(=O)OC3(C)C(=O)C2=CN1CC (centres unmarked) [Acrocarpunicain A (1), acrocarpunicain A]					inhibited this increase in a concentration-dependent manner; also recorded: significantly inhibited	> 90%	100 ± 15.5 % Control	about 4 fold		
CCC(CCC(C)C1CCC2C3CC=C4CC(OC(=O)C=Cc5cc(O)c(OC)c(O)c5)CCC4(C)C3CCC12C)C(C)C (stereo not drawn) [Acrocarpunicain E (5), β-sitosteryl trans-3-hydroxyisoferulate]									no NO inhibitory activity	67.4 ± 4.09 µM
COc1cc2ccc3c(c2cc1C(C)C)CCCC3(C)C [Acrocarpunicain F (6), 6-isopropyl-7-methoxy-1,1-dimethyl-1,2,3,4-tetrahydrophenanthrene]		27.2 ± 1.87 µM		≤ 27.2 µM	inhibited this increase in a concentration-dependent manner; also recorded: significantly inhibited	> 90%	91.3 ± 7.1 % Control	~1.2 fold		
O=c1c(O)c(-c2ccc(O)c(O)c2)oc2cc(O)cc(O)c12 [Quercetin, reference compound]				36 ± 2.34 µM			95.9 ± 1.3 % Control			

Further lines, with some results ahead:

IC50 ([3]; RAW 264.7 murine macrophages, 1 μg/mL LPS, 20 h, mean ± S.E.M. of three independent experiments, listed as 2)	IC50 [3, 4]	IC50 ([3]; RAW 264.7 murine macrophages, 1 μg/mL LPS, 20 h, mean ± S.E.M. of three independent experiments, listed as 3)	IC50 [3, 5]	SMILES	Effect on LPS-increased iNOS mRNA expression [1]	viability at 20 h [2]	Cell Viability (% Control) (RAW 264.7 cells)	NO inhibitory activity compared to quercetin [3]	NO inhibitory activity (in words) [3]	IC50 ([3]; Mus musculus, RAW264.7, 20 h)
≤ 27.2 µM	10.1 ± 0.47 µM			CC=CC1=CC2=CC3=C(C(=O)CCCCCCC)C(=O)OC3(C)C(=O)C2=CN1CC (centres unmarked) [Acrocarpunicain B (2), acrocarpunicain B]	inhibited this increase in a concentration-dependent manner; also recorded: significantly inhibited	> 90%	95.5 ± 4.2 % Control	~3 fold		
	5.15 ± 0.18 µM	≤ 27.2 µM		C/C=C/c1cc2cc3c(c(=O)c-2co1)C(=O)OC3C (centres unmarked) [Acrocarpunicain C (3), (E)-1-methyl-7-(prop-1-en-1-yl)-3H-furo [3,4-g]isochromene-3,4(1H)-dione]	inhibited this increase in a concentration-dependent manner; also recorded: significantly inhibited	> 90%	92.7 ± 4.1 % Control	~7 fold		
			41.7 ± 3.02 µM	CC=CC1=C(C)C(=O)C2(C)OC(=O)C(C(=O)CCCCC)C2C1 (centres unmarked) [Acrocarpunicain D (4), acrocarpunicain D]			62.2 ± 3.2 % Control		weak NO inhibitory activity	
